From patent publication US20250236892A1, “Inhibition of NHEJ, MMEJ, and 53BP1 Promotes High Levels of HDR” (Integrated DNA Technologies, Inc., priority 2024, published 2025)

Experiments:
HEK293 cells [1] = assay: HDR insertion of a 6-nt EcoRI sequence at SpCas9 RNP induced DSBs with ssDNA donor, repair events measured by NGS; format: cell-based
Method: FIG. 1 depicts inhibition of NHEJ, MMEJ, and 53BP1 leads to high levels of HDR at SpCas9 induced DSBs. HEK293 cells were treated with Cas9 RNP (2 μM) targeting 5 different sites (FIG. 1A: AADACL3; FIG. 1B: ANKRD50; FIG. 1C: ABCD4: FIG. 1D: AR; FIG. 1E: AKAP6) in the genome alongside ssDNA donor template with or without Ubv-A protein (25 μM). Cells were then plated in media containing no DMSO, DMSO control, ART, V2, or ART+V2 for 24 hours before exchanging for fresh media (see Methods for concentrations). The graphs show the percent of each repair event under each condition measured by NGS with error bars indicating SD from three replicates. Likely MMEJ deletions are determined based on the presence of microhomology of two nucleotides or greater at the ends of the deletion.
For HDR using ssDNA templates in HEK293 cells genome editing was mediated via IDT Alt-R Cas9 ribonucleoprotein, IDT Alt-R AsCas12a Ultra, or EURECA-V (a ErCas12a variant) (RNP) complexes delivered by Lonza nucleofection in concert with single-stranded oligodeoxynucleotide (ssODN) HDR repair templates. The specific repair event was the insertion of a 6-nt EcoRI sequence (5′-GAATTC-3′) at either the Cas9, AsCas12a, or ErCas12a cut site. The sgRNAs for Cas9 and crRNAs for AsCas12a corresponding to the protospacer sequences listed in Table 2 were ordered from IDT (Table 2). The HDR donor templates for Cas9 editing contain 40-nt homology arms (HA) flanking a 6 nt EcoR1 cut site insert. The HDR donor templates for AsCas12a were similar except for slightly different homology arm lengths (40 nt 5′ HA and 45 nt 3′ HA)^66. The HDR donor sequences listed in Table 3 were ordered from IDT as Alt-R HDR donor oligos (Table 3). The repair templates are homologous to the non-targeting strand of dsDNA, where targeting/non-targeting is defined with respect to the guide RNA sequence and the presence of the NGG/TTTV PAM sequence identifying the non-target strand. […]

HEK293 cells [2] = assay: CAR knock-in at the TRAC locus with dsDNA Alt-R HDR donor block, PCR and Fragment Analyzer; format: cell-based; conditions: enhancer used alone; ART558 10 μM, V2 1 μM, Ubv-A protein 25 μM, Ubv-A mRNA 25 nM; Cas9 RNP or Cas9 mRNA
Method: FIG. 3A depicts percent CAR knock-in (KI) at the TRAC locus in HEK293 cells treated with 1 μg dsDNA Alt-R HDR donor block, 2 μM Cas9 RNP, and either 25 μM tagless Ubv-A protein or 25 nM Ubv-A mRNA or no Ubv-A and incubated in media containing DMSO (no enhancer), MMEJ inhibitor ART558 (ART, 10 μM), NHEJ inhibitor Alt-R HDR enhancer V2 (V2, 1 μM), or both ART558 and V2. Percent KI was calculated using PCR followed by analysis using an Agilent Fragment Analyzer and data processing using PROSize 3.0 software to calculate the relative molar concentrations between wild-type and edited products. Error bars indicate SD, n=3. […]
HEK293 cells were harvested and resuspended in SF Cell Line Nucleofector Solution (Lonza, V4SC-2096) at a concentration of approximately 16,500 cells/μl and 18 μl of this cell suspension was used for each nucleofection. […] To quantify knock-in percentages, genomic DNA flanking the sgRNA target site was amplified by PCR, PCR products were separated on a Fragment Analyzer (Agilent Technologies), and the percentage of edited and unedited alleles was calculated using PROSize 3.0 software.
Recent publications have shown that inhibition of MMEJ through inhibition of DNA polymerase theta using small molecule inhibitors increases the rate of HDR and reduces undesired edits^16,27. […] Genomic DNA was isolated approximately 48 hours after delivery and editing was analyzed by NGS. […]

Cc1cccc(N(C)C(=O)[C@@H]2[C@H](O)CCN2c2nc(C)cc(C(F)(F)F)c2C#N)c1 [ART558, reference compound]
HDR (HEK293 cells [1]; 10 μM ART558 alone in media 24 hours, 2 μM Cas9 RNP, 2 μM ssDNA, 5 sites): minimal boost in HDR | HDR, site with largest increase (HEK293 cells [1]; 10 μM ART558 alone, AKAP6 site, highest level of likely MMEJ repair events in media only condition): AKAP6 | rates of HDR and likely MMEJ events (HEK293 cells [1]; 10 μM ART558 in combination with 1 μM V2, compared with ART558 plus Ubv-A): the effect is less pronounced | HDR (CAR knock-in) (HEK293 cells [2]): minimal effect on HDR
